This assay concerns the target Glucagon receptor (Homo sapiens, UniProt P47871). Nature of the assay: Inhibition of human glucagon receptor expressed in CHO cell membranes by radioligand displacement assay. Type of assay: cell-based. (In general: Loss of bound radioactivity is the signal in a displacement assay; it reports binding, not function.)
Sequence of Glucagon receptor (P47871 whole entry): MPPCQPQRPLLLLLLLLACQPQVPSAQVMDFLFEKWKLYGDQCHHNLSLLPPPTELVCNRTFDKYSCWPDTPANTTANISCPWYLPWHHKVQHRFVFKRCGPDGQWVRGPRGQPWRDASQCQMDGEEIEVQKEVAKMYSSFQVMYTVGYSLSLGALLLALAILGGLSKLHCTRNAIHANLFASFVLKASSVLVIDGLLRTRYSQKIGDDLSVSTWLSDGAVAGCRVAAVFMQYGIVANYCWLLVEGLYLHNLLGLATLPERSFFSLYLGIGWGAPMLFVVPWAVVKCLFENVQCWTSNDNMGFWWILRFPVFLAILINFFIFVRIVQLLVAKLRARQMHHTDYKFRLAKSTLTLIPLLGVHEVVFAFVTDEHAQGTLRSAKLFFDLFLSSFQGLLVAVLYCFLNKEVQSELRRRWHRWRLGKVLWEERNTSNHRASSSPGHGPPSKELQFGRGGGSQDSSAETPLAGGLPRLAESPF
For the compound `N#Cc1ccc(-c2nc(-c3ccncc3)c(-c3ccc(F)cc3)[nH]2)cc1`, the IC50 (in general, the midpoint of a concentration-inhibition curve) was 0.21 µM.

Regarding `Brc1ccc(-c2nc(-c3ccncc3)c(-c3ccccc3)[nH]2)cc1`, the IC50 is 0.0401 µM.

Regarding `Fc1ccc(-c2[nH]c(-c3ccc(I)cc3)nc2-c2ccncc2)cc1`, the IC50 is 0.1 µM.

Regarding `Fc1ccc(-c2nc(-c3ccc(Cl)cc3)[nH]c2-c2ccncc2)cc1`, the IC50 is 0.0802 µM.

`Fc1ccc(-c2[nH]c(-c3cccc4ccccc34)nc2-c2ccncc2)cc1` showed a concentration for half-maximal inhibition (IC50) of 0.34 µM.

In the case of `Clc1ccc(-c2nc(-c3ccncc3)c(-c3ccccc3Oc3ccccc3)[nH]2)cc1`, the IC50 was 0.15 µM. This IC50 is about 2.3-fold lower than that of the compound before.

`Clc1ccc(-c2nc(-c3ccc(I)cc3)c(-c3ccncc3)[nH]2)cc1` gave a 50% inhibitory concentration (IC50) of 0.14 µM.

As for `Clc1ccc(-c2nc(-c3ccncc3)c(-c3ccc(Oc4ccccc4)cc3)[nH]2)cc1`, the IC50 was 0.25 µM.

As for `Cc1cc(-c2[nH]c(-c3ccc(Cl)cc3)nc2-c2ccc(F)cc2)ccn1`, the 50% inhibitory concentration (IC50) was 0.05 µM.

In the case of `CCCOc1ccc(-c2[nH]c(-c3ccc(Cl)cc3)nc2-c2ccncc2)c(OCCC)c1`, the IC50 was 2.4 µM.

With `Cc1ccc(-c2nc(-c3ccc(F)cc3)c(-c3ccncc3)[nH]2)cc1`, the half-inhibitory concentration (IC50) is 0.0902 µM. Compared with the last compound, the IC50 is about 27-fold lower.

Turning to `Oc1ccc(-c2[nH]c(-c3ccc(Br)cc3)nc2-c2ccccc2)cc1`, the IC50 is 0.1 µM. The IC50 values of the last two compounds are within 1.5-fold of each other.

The compound `Cc1cnccc1-c1nc(-c2ccc(Cl)cc2)[nH]c1-c1ccc(F)cc1` showed a half-maximal inhibitory concentration (IC50) of 0.02 µM.

In the case of `Fc1ccc(-c2[nH]c(-c3ccc(Br)s3)nc2-c2ccncc2)cc1`, the IC50 is 0.11 µM.

Consider `Brc1ccc(-c2nc(-c3ccccc3)c(-c3ccccc3)[nH]2)cc1`, for which the half-inhibitory concentration (IC50) was 2.2 µM.

For `Clc1ccc(-c2nc(-c3ccncc3)c(-c3ccc(Cl)cc3)[nH]2)cc1`, the IC50 is 0.023 µM.

As for `Clc1ccc(-c2nc(-c3ccc(-c4ccccc4)cc3)c(-c3ccncc3)[nH]2)cc1`, the IC50 is 3.3 µM.

The compound `Fc1ccc(-c2[nH]c(-c3cccc(Br)c3)nc2-c2ccncc2)cc1` gave a half-maximal inhibitory concentration (IC50) of 0.15 µM.

With `CSc1ccc(-c2nc(-c3ccncc3)c(-c3ccc(F)cc3)n2C)cc1`, the IC50 is 0.861 µM.

For the compound `Fc1ccc(-c2[nH]c(-c3ccc(-c4ccccc4)cc3)nc2-c2ccncc2)cc1`, the IC50 is 0.301 µM.

The compound `Clc1ccc(-c2nc(-c3ccncc3)c(-c3cccc(Oc4ccccc4)c3)[nH]2)cc1` showed an IC50 of 0.22 µM.

As for `CC(C)c1ccc(-c2nc(-c3ccc(F)cc3)c(-c3ccncc3)[nH]2)cc1`, the IC50 is 0.281 µM.

`Fc1ccc(-c2[nH]c(-c3ccc(Br)o3)nc2-c2ccncc2)cc1` showed an IC50 of 0.19 µM.

On to `Fc1ccc(-c2[nH]c(-c3ccccc3Br)nc2-c2ccncc2)cc1`, for which the IC50 is 0.0902 µM. This IC50 lies about 2.1-fold lower than the previous one.

Consider `Fc1ccc(-c2nc(-c3ccc(Br)cc3)[nH]c2-c2ccncc2)cc1`, for which the IC50 was 0.16 µM.

As for `Clc1ccc(-c2nc(-c3cccc(-c4ccccc4)c3)c(-c3ccncc3)[nH]2)cc1`, the concentration for half-maximal inhibition (IC50) is 0.59 µM.

Regarding `Fc1ccc(-c2[nH]c(CCc3ccccc3)nc2-c2ccncc2)cc1`, the IC50 was 0.12 µM.

Compound `CSc1ccc(-c2nc(-c3ccc(F)cc3)c(-c3ccncc3)o2)cc1` had a concentration for half-maximal inhibition (IC50) of 0.931 µM.

`CSc1ccc(-c2nc(-c3ccc(F)cc3)c(-c3ccncc3)n2C)cc1` had an IC50 of 0.521 µM.

These data come from ChEMBL document CHEMBL2424514, “Prediction of glucagon receptor antagonist activities of some substituted imidazoles using combined radial basis function neural network and density functional theory” (Med Chem Res, 2013).
